Reference: US20250043290A1, “RNA SEQUENCES THAT INDUCE FLUORESCENCE OF SMALL MOLECULE FLUOROPHORES, MOLECULAR COMPLEXES, SENSORS, AND METHODS OF USE THEREOF” (CORNELL UNIVERSITY, priority 2021, published 2025)
Where two headings read alike, the source gives them in different places. Marks after values point to notes of the source that are not given here.

Columns and labels:
[1] = data from Song et al., cited from earlier work
[2] = Photophysical properties of fluorophores and RNA-fluorophore complexes (Squash study); type: physicochemical
Protocol: All RNAs used for in vitro studies (except the initial hits from SELEX and the DE2-6 mutants) were purified using 8% denaturing PAGE (7M urea) and eluted in 0.3 M NaOAc (pH 5.2) overnight. The RNA was ethanol precipitated and quantified using absorbance in a NanoDrop 2000 spectrometer. All in vitro RNA properties were measured in 40 mM HEPES-KOH (pH 7.4), 100 mM KCl, 0.5 mM MgCl2 buffer unless specified.
Absorption, excitation, and emission spectra were measured using conditions where the RNA is in excess and the fluorophore is limiting to ensure that no free fluorophore contributes to the absorbance or fluorescence signal (FIGS. 7A-7D).
All quantum yields were determined by comparing each RNA-fluorophore complex with Broccli-DFHBI-1T or Corn-DFHO. All measurements for quantum yield were taken in the presence of excess RNA (10 μM final) compared to the fluorophores (0.2 μM final) to avoid interference from unbound fluorophore. The integral of the emission spectra for each Squash-fluorophore complex was compared with the corresponding integrals for Broccoli or Corn to calculate the quantum yield.

[3] = Fluorescence activation of DFHBI-1T by aptamers in vitro; type: biochemical
Text: FIG. 1A is a schematic illustrating the strategy for evolution of the add A-riboswitch aptamer. Indicated are helices P1-P3, junctional strands (J1/2, J2/3, J3/1), kissing loop (gray lines), and adenine interactions with the aptamer (dotted line) (5′-CUUCAUAUAAUCCUAAUGAUAUGGUUUGGGAGUUUCUACCAAGAGCCUUAAACUCUUGAUUAUGAAG-3′ (SEQ ID NO:36)). The chemical structure of adenine and fluorophores are shown. Three regions (Region 1: 5′-UAU AAU-3′ (SEQ ID NO:37)), Region 2: 5′-AGU UUC UAC C-3′ (SEQ ID NO:38); Region 3: 5′-GAU UAU-3′ SEQ ID NO:39), which include J1/2, J2/3, and J3/1 were randomized in both size and sequence resulting in a sprouts/clips library for SELEX. Each nucleotide in the colored regions was replaced using a combination of random stochastic deletion (designated “N”) and random stochastic insertion (designated “n”). FIG. 1B is schematic showing a three dimensional structure of the add A-riboswitch aptamer highlighting the adenine-binding pocket (PDB 1Y26). The mutagenized regions are shown in the same color as FIG. 1A. Adenine is indicated by the arrow. FIG. 1C is a schematic illustrating the evolution of the add A-riboswitch aptamer into Squash, a DFHBI-1T-binding aptamer. The sprouts/clips library was selected for binding to DFHBI-conjugated agarose resulting in aptamer 9-1. Aptamer 9-1 was subjected to two consecutive rounds of directed evolution generating DE2-6. A pair of mutations was introduced in DE2-6 to strengthen the kissing loop interaction resulting in Squash. FIG. 1D is a graph showing fluorescence activation of DFHBI-1T by different aptamer intermediates that led to Squash. The values inside the bars indicate fold-activation of DFHBI-1T fluorescence by the corresponding aptamer. Data represent mean values±s.d. for n=3 independent experiments. […]
(§1) FIG. 6A is a bar graph showing fluorescence activation of DFHO by Squash and its precursors. Fluorescence was measured with 200 nM dye and 10 μM RNA (ex: 495 nm, em: 562 nm, except for Corn; ex: 505 nm, em: 545 nm). […] FIG. 6B is a bar graph showing fluorescence of initial hits after Round 7 of SELEX. In vitro transcribed RNAs from each hit (1 μM final) were mixed with DFHBI-1T (10 μM final) and the fluorescence was measured (ex: 452 nm, em: 503 nm, except for Broccoli; ex: 472 nm, em: 507 nm). […] FIGS. 6C-6D are bar graphs showing fluorescence measurements of the hits with DFHBI-1T after first (FIG. 6C) and second (FIG. 6D) round of directed evolution, measured as in FIG. 6B. […] FIG. 6E is a bar graph showing fluorescence measurements of hits using DFHO after the second round of directed evolution measured as in FIG. 6A. The fluorescence of the hits were normalized against Corn. […] FIG. 6F is a graph showing normalized fluorescence. […] Fluorescence was measured as in FIG. 6A. […]

[4] = Fluorescence activation of DFAME by aptamers in vitro; type: biochemical; conditions: in vitro
Protocol: To test whether Beetroot can activate DFHO, the fluorescence emission spectrum of the Beetroot-DFHO complex was measured. In brief, 20 μM Beetroot and 2 μM DFHO were mixed, and the fluorescence emission of the Beetroot-DFHO complex was measured. […] To test whether Beetroot can activate DFHBI-1T, the fluorescence emission spectrum of the Beetroot-DFHBI-1T complex was measured using the same protocol described in FIG. 32A. […] To test whether Beetroot can activate BI, the fluorescence emission spectrum of the Beetroot-BI complex was measured using the same protocol described in FIG. 32A. […] To test whether Corn can activate DFAME, the fluorescence emission spectrum of the Corn-DFAME complex was measured using the same protocol described in FIG. 32A.
The eluted RNAs were then ethanol precipitated, reverse transcribed, PCR amplified and in vitro transcribed to yield the pool for the next SELEX round. The presence of fluorescent RNA species in each pool was assessed by mixing 20 μM RNA and 10 μM DFAME and measuring fluorescence emission of this solution on a fluorometer in comparison with the fluorophore alone. At this point, RNAs were cloned into bacterial expression plasmids for FACS-based screening.
dsDNA encoding the top-performing RNA sequences from the brightest bacterial colonies was PCR amplified from the purified plasmids. […] The resulting RNA was then purified using Zymo RNA concentrator columns and quantified by absorbance using a Thermo Scientific NanoDrop 2000 spectrophotometer. For absorption, excitation and emission spectra measurements, “excess RNA” conditions and limiting amount of fluorophore was used to ensure that no free fluorophore contributes to the absorbance or fluorescence signal. The RNA concentration used for fluorescence and absorbance measurements was 20 μM and 50 μM, respectively, while the dye concentration was 2 μM and 5 μM, respectively. All in vitro RNA properties were measured in 40 mM HEPES pH 7.4, 100 mM KCl, 5 mM MgCl2 buffer, unless specified.

[5] = Fluorescence activation of DFHO by aptamers in vitro; type: biochemical
Text: FIG. 2A is a schematic showing the secondary structure of Squash as predicted by mFOLD (Squash: 5′-GGCUACAAGGUGAGCCCAAUAAUACGGUUUGGGUUAGGAUAGGAAGUAGAGCCGUAAACUCUCUAAGCGGUAGUC-3′ (SEQ ID NO:1)). Squash retained the main structural elements of add A-riboswitch aptamer including a 3-way junction and predicted kissing loop interactions (residues at positions 30, 31, 56, and 57, solid gray line). An additional base pair in the kissing loop between loop L2 and L3 (residues at positions 29 and 58, dotted gray line) improved fluorescence activation. […] Shown are the excitation (Ex) and emission (Em) spectra of Squash bound to DFHBI-1T and DFHO (structures shown in inset). Spectra were measured using 20 μM RNA and 2 μM of the indicated fluorogenic dye. […] Fluorescence activation was measured by incubating 200 nM dye and 10 μM RNA. By using a large excess of RNA compared to the fluorophore, it was ensured that the fluorescence observed is from 200 nM RNA-fluorophore complex. Data represent mean values±s.d. for n=3 independent experiments. The values inside the bars indicate fold activation. AU, arbitrary units. FIG. 2D is a graph showing the dissociation constant (Kd) between Squash and DFHO as measured by titration of 50 nM Squash with increasing concentration of DFHO, and fitted using a one-site saturation model. […] FIG. 2E is a bar graph showing the results of an experiment in which Squash-DFHO fluorescence was measured in buffers containing exclusively the indicated cations. […] Similar to the parental add A-riboswitch aptamer (see Lemay et al., “Folding of the Adenine Riboswitch,” Chem. Biol. 13:857-868 (2006), which is hereby incorporated by reference in its entirety), Squash-DFHO has a low magnesium requirement for fluorescence activation. […]
as §1

[6] = 40 mM HEPES-KOH (pH 7.4), 100 mM KCl, 0.5 mM MgCl2

Which results are given for `CN1C(=O)/C(=C/c2cc(F)c(O)c(F)c2)N=C1/C=N/O` [DFHO, 4-(3,5-difluoro-4-hydroxybenzylidene)-1-methyl-5-oxo-4,5-dihydro-1H-imidazole-2-carbaldehyde oxime]?
Extinction coefficient ([1]; DFHO alone, at 505 nm, pH 7.4 buffer): 19,800 M^−1cm^−1; Emission maximum [1]: 561 nm; Excitation maximum [1]: 473 nm; Fluorescence quantum yield [1]: 0.0006; Brightness (extinction coefficient × quantum yield) ([1]; relative to Corn-DFHO): 0.16; Emission maximum [2, 6]: 561 nm; Excitation maximum [2, 6]: 473 nm; Fluorescence quantum yield ([2]; compared with Broccoli-DFHBI-1T or Corn-DFHO): 0.0006; Extinction coefficient ([2]; free DFHO, at 495 nm): 27,000** M^−1cm^−1; Brightness (extinction coefficient × quantum yield) ([2]; relative to Corn): 0.22

B1: 9-1: initial SELEX hit from sprouts/clips library, SEQ ID NO: 9 (nucleic acid)
chain: GCCUAGGCUUCAAGGUGGCCCAAUGAUAUGGUUUGGGUUAGGAUAGGAAUAAGAGCCUUAAACUCUUCAAAGCGGAAGUCUAGGC
modifications: listed as RNA, chemistry not given here
For B1, which “Fold activation of DFHBI-1T fluorescence” value [3] is on record?
Its value is ~521 fold.

B2: 10-1: RNA aptamer from 10 rounds of SELEX that binds DFAME, SEQ ID NO: 95 (nucleic acid)
chain: GCUUCCGUGCGACAUCAUGCGCGCGACUGCUUCGGCAGAGGUGGGUGGUGUGGAGGAGUAUCUG
modifications: RNA, backbone not given here
For B2, which “Fold fluorescence enhancement of DFAME” value [4] is on record?
The value was “threefold”.

B3: DE1-2: brightest aptamer of first directed evolution, SEQ ID NO: 10 (nucleic acid)
chain: GCCUAGGCUUCAAGGUGAGCCCAAUAAUAUGGUUUGGGUUAGGAUAGGAAGAAGAGCCUUAAACUCUCUAAGCGGAAGUCUAGGC
modifications: listed as RNA, chemistry not given here
With B3 as the molecule, how does the “Fold activation of DFHBI-1T fluorescence” value [3] read?
The value was “approximately 790 fold”.

B4: DE2-6: aptamer of second directed evolution, SEQ ID NO: 11 (nucleic acid)
chain: GCCUAGGCUACAAGGUGAGCCCAAUAAUAUGGUUUGGGUUAGGAUAGGAAGUAGAGCCUUAAACUCUCUAAGCGGUAGUCUAGGC
modifications: listed as RNA, chemistry not given here
What does the source list for B4?
Fold activation of DFHBI-1T fluorescence [3]: approximately 949 fold; Fold activation of DFHO fluorescence [5]: ~492 fold
